From ChEMBL document CHEMBL5316350, “Novel Pyrido[2',1':2,3]imidazo[4,5-c]quinoline Derivative Selectively Poisons Leishmania donovani Bisubunit Topoisomerase 1 to Inhibit the Antimony-Resistant Leishmania Infection in Vivo” (J Med Chem, 2023)
Calls of active or inactive are those of the source. No cut-off for these calls is given here.

Legend:
HEK293 = assay: Potency index ratio of test compound IC50 to camptothecin IC50 for cytotoxicity against HEK293 cells; assay type: functional, Homo sapiens
[1] = target: T1, DNA topoisomerase I (Leishmania donovani (strain BPK282A1)) (UniProt E9BRC0); assay: Binding affinity to antimony resistant Leishmania donovani BHU575 promastigotes recombinant topoisomerase I assessed as stabilization of cleavage complex at 5 to 50 uM measured after 30 mins; settings: dose 5-50 µM
T1 sequence (whole entry): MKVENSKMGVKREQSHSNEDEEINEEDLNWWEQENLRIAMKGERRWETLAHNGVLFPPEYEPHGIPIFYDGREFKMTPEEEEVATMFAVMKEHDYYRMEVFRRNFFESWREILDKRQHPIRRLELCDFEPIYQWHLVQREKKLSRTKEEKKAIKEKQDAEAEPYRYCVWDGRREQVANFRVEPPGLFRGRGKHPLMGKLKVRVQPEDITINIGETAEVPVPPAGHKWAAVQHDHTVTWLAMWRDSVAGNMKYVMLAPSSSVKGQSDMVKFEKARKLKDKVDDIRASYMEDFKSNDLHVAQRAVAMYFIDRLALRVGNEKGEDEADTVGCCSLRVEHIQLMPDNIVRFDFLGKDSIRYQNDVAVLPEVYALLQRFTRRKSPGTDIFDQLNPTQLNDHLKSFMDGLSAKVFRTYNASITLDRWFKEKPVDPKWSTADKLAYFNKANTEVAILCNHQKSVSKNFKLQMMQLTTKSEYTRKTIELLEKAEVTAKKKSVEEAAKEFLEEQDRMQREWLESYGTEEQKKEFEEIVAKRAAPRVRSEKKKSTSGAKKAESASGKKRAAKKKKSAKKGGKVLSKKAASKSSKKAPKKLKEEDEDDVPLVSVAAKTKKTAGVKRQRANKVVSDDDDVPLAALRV

Leishmania donovani [2] = assay: Induction of apoptosis in Leishmania donovani Ag83 promastigotes assessed as late apoptotic cells measured at 5 uM after 24 hrs by Annexin V-FITC/PI staining based flow cytometric analysis (reference value: 0.1%); assay type: functional
Leishmania donovani [3] = assay: Induction of cell cycle arrest in antimony resistant Leishmania donovani BHU575 promastigotes assessed as decrease in accumulation of cells in S phase at 5 uM measured after 24 hrs by PI staining based flow cytometry (reference value: 9.8%); assay type: functional; set-up: scale not given: the % may be the effect or the level left
Leishmania donovani [4] = assay: Induction of apoptosis in Leishmania donovani Ag83 promastigotes assessed as late apoptotic cells measured at 5 uM after 6 hrs by Annexin V-FITC/PI staining based flow cytometric analysis (reference value: 0.1%); assay type: functional
Leishmania donovani [5] = assay: Induction of apoptosis in Leishmania donovani Ag83 promastigotes assessed as increase in apoptotic cells measured at 5 uM after 1.5 hrs by Annexin V-FITC/PI staining based flow cytometric analysis; assay type: functional, organism-based
Leishmania donovani [6] = assay: Induction of cell cycle arrest in Leishmania donovani Ag83 promastigotes assessed as decrease in accumulation of cells in S phase at 5 uM measured after 24 hrs by PI staining based flow cytometry (reference value: 18.1%); assay type: functional; set-up: scale not given: the % may be the effect or the level left
[7] = target: T1, DNA topoisomerase I (Leishmania donovani (strain BPK282A1)); assay: Inhibition of Leishmania donovani topoisomerase I assessed as DNA intercalation using pBluscript (SK+) DNA as substrate at 20 to 200 uM incubated for 15 mins ethidium bromide staining based UV analysis; settings: dose 20-200 µM
Leishmania donovani [8] = assay: Antileishmanial activity against Leishmania donovani Ag83 promastigotes infected in BALB/c mouse model of visceral leishmaniasis assessed as fold change in T-helper type 1 immunological evoke response in splenocytes by measuring increase in TNF alpha cytokine level treated after 3 weeks of infection at 5 to 10 mg/kg, ip twice a week for 3 weeks by RT-PCR analysis; assay type: functional; settings: dose 5-10 mg/kg
Leishmania donovani [9] = assay: Stabilization of Leishmania donovani promastigotes Top1-DNA complex assessed as formation of SDS-KCl precipitable complex incubated for 110 mins by anti-BrdU staining based spectrophotometric analysis
Leishmania donovani [10] = assay: Antileishmanial activity against Leishmania donovani Ag83 promastigotes infected in BALB/c mouse assessed as reduction of macrophage at 1 to 10 uM infection by propidium iodide staining analysis; assay type: functional, organism-based; settings: dose 1-10 µM, time 72-96 hrs, TDE = time-dependent effect
Leishmania donovani [11] = assay: Stabilization of Leishmania donovani recombinant topoisomerase I/25-mer duplex oligonucleotide DNA complex assessed as fold change in stabilization at 5 to 25 uM measured after 30 mins; settings: dose 5-25 µM
Leishmania donovani [12] = assay: Antileishmanial activity against antimony resistant Leishmania donovani BHU575 promastigotes infected in BALB/c mouse assessed as reduction of amastigote burden in spleen treated after 3 weeks of infection at 5 to 10 mg/kg, ip twice a week for 3 weeks by Giemsa staining stamp-smear based limiting dilution assay; assay type: functional, organism-based; settings: dose 5-10 mg/kg
[13] = target: T2, DNA topoisomerase 1 (Homo sapiens) (UniProt P11387); assay: Inhibition of human recombinant Top1 assessed as stabilization of clevage complex upto 100 uM measured after 30 mins
T2 sequence (whole entry): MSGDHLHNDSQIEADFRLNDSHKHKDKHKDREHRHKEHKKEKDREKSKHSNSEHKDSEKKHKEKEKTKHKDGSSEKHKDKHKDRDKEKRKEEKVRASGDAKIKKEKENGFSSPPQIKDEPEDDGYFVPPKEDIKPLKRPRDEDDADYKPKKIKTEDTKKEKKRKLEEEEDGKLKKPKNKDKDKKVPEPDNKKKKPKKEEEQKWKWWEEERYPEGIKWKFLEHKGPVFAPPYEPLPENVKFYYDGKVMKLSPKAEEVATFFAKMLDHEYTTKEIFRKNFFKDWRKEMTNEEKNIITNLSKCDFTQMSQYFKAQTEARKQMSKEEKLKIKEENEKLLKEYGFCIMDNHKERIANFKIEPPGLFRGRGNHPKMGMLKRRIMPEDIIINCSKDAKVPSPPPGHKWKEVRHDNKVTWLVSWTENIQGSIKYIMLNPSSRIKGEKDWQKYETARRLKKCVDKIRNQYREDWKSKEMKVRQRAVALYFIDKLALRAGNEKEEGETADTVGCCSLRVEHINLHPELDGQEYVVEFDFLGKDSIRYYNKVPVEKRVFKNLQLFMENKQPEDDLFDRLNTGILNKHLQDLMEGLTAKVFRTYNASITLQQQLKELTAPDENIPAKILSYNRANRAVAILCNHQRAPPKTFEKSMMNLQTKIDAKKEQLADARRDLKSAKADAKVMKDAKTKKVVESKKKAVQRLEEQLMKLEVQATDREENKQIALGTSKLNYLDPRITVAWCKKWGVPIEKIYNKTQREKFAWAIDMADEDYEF

Leishmania donovani [14] = assay: Induction of cell cycle arrest in Leishmania donovani Ag83 promastigotes assessed as decrease in accumulation of cells in G2/M phase at 5 uM measured after 12 hrs by PI staining based flow cytometry (reference value: 15.1 %); assay type: functional; set-up: scale not given: the % may be the effect or the level left
Leishmania donovani [15] = assay: Induction of apoptosis in Leishmania donovani Ag83 promastigotes assessed as viable cells measured at 5 uM after 6 hrs by Annexin V-FITC/PI staining based flow cytometric analysis (reference value: 99.4%); assay type: functional
Leishmania donovani [16] = assay: Antileishmanial activity against Leishmania donovani Ag83 promastigotes infected in BALB/c mouse assessed as reduction of amastigote burden in liver treated after 3 weeks of infection at 5 to 10 mg/kg, ip twice a week for 3 weeks by Giemsa staining stamp-smear based limiting dilution assay; assay type: functional, organism-based; settings: dose 5-10 mg/kg
Leishmania donovani [17] = assay: Induction of cell cycle arrest in Leishmania donovani Ag83 promastigotes assessed as decrease in accumulation of cells in G0/G1 phase at 5 uM measured after 12 hrs by PI staining based flow cytometry (reference value: 65.1%); assay type: functional; set-up: scale not given: the % may be the effect or the level left

SMILES: COc1cc(-c2nc3ccccc3c3nc4ccccn4c23)cc(OC)c1OC
- Ratio IC50 (HEK293): 90
- Activity [1]: Active
- Activity (Leishmania donovani [2]): 70.6%
- Activity (Leishmania donovani [3]): 22.3%
- Activity (Leishmania donovani [4]): 52.5%
- Activity (Leishmania donovani [5]): Active
- Activity (Leishmania donovani [6]): 31.5%
- inhibition [7]: inactive
- fold change (FC) (Leishmania donovani [8]): 5
- Activity (Leishmania donovani [9]): Active
- Activity (Leishmania donovani [10]): Tde
- fold change (FC) (Leishmania donovani [11]): 2
- Activity (Leishmania donovani [12]): Active
- inhibition [13]: inactive
- Activity (Leishmania donovani [14]): 14.5%
- Activity (Leishmania donovani [15]): 5%
- Activity (Leishmania donovani [16]): Active
- Activity (Leishmania donovani [17]): 40.7%
